The subject of test [1] is IL2R-CISC expressing primary human T-cells. Description: Selective enrichment of IL2R-CISC expressing T cells, flow cytometry of cis-linked GFP/mCherry marker. The test is classed as cell-based. Particulars: for mCherry positive cells: IL2R-CISC V3 cells, by 15 days culture in the ligand, starting transduced population 64% mCherry positive. The procedure:
Each architecture of IL2R-CISC (i.e. 1210, 1211, and 1233) was cis-linked together with GFP using 2A sequences, and placed under the control of an MND promoter in a lentiviral expression cassette (as schematized in FIG. 5, bottom). Lentiviral particles from each IL2R-CISC architecture were generated and used to transduce primary human T-cells.
Lentiviral particles from each IL2R-CISC architecture were generated and used to transduce primary human T-cells. CD4+ T cells were activated for 60 hours. […] Lentivirus was transduced with or without beads, using 15 μL of IL2R-CISC and 3 μL of MND-GFP control with protamine sulfate at 4 μg/mL (0.5 mL medium) in a 24-well dish. The cells were then spinoculated at 800 g for 30 minutes at 33° C. followed by the addition of 1.5 mL medium after 4 hours of incubation. […] The GFP signal was determined and the IL2R-CISC level of transduced T cells was determined.
The T cell viability was determined and the expression of GFP+ population and IL2R-CISC expression was determined by using anti-FRB antibody and a secondary APC antibody.

Test [2] deals with IL2R-CISC V3 expressing human CD4+ T cells. Description: Expansion of IL2R-CISC expressing cells in culture (cell numbers). The test is classed as cell-based. Particulars: for Dose inducing the most robust cell expansion / Cell expansion: 30 days.
Test [3] has as its system gene targeted CD4+ T cells expressing GFP-FOXP3 and IL2R-CISC V3. The experiment in a line: Targeted knock-in of MND promoter and CISC into FOXP3 locus, enrichment of gene targeted cells (GFP-FOXP3 flow cytometry). It counts as cell-based. The settings on record: 15 days culture; 10 nM ligand. The source says: The described targeting approach integrates a promoter and both components of an IL2R-CISC V3 into the FOXP3 locus in line with a GFP fusion to the native FOXP3 gene. This architecture is intended to allow for ligand-induced selection of cells which have undergone an accurate gene targeting event.
FIG. 26 depicts a schematic diagram showing an experimental design of targeted knock-in of MND promoter and CISC. This represents an experimental schematic of how a CRISP/Cas9 nuclease is used to induce targeted integration of the cassettes from FIG. 25 into the FOXP3 locus, followed by expansion of the gene targeted cells in the indicated IL2R-CISC ligand.
Following targeted integration into the FOXP3 locus utilizing the indicated approaches (no targeting, or RNP plus each of the cassettes described in FIG. 25), cells were cultured in the indicated conditions for 15 days, and then analyzed by flow cytometry for GFP-FOXP3 expression. […] Flow panels are representative of IL2R-CISC GFP-FOXP3 expression by cells cultured in rapamycin.
Following targeted integration into the FOXP3 locus utilizing the indicated approaches, cells were cultured in the indicated conditions for 15 days, and then analyzed by flow cytometry for GFP-FOXP3 expression.
In addition, the targeted knock-in of MND promoter and CISC was tested to enrich and/or expand gene targeted T cells. […]

In test [4] the test system is STAT5 phosphorylation in IL2R-CISC expressing T cells. Description: phospho-STAT5 signaling after 20 days of culture. It counts as cell-based, human. Particulars: mock, GFP and IL2R-CISC cell types.
Test [5] has as its system Akt activation in IL2R-CISC human CD4+ T cells. The experiment in a line: Western blot for Akt activation. It counts as cell-based. Particulars: 15 days rapamycin 1 nM, 48 h cytokine starvation, stimulation with rapamycin 100 nM for 20 minutes. The procedure:
IL2R-CISC human CD4+ T cells were analyzed following 15 days of rapamycin treatment at 1 nM, following by cytokine starvation for 48 hours.

Molecules are shown by their SMILES. “Also recorded” adds a separate entry of the source.

As to `CO[C@H]1[C@@H](O)[C@H](C)C[C@H](C)/C=C/C=C/C=C(\C)[C@@H](c2c[nH]c3c(C)cccc23)C[C@@H]2CC[C@@H](C)[C@@](O)(O2)C(=O)C(=O)N2CCCC[C@H]2C(=O)O[C@H]([C@H](C)C[C@@H]2CC[C@@H](O)[C@H](OC)C2)C[C@H](O)[C@H](C)/C=C(\C)[C@H]1O` [AP21967, C-16-(S)-7-methylindolerapamycin], the mCherry positive cells in test [1] is more than 93%. For the same molecule, the “CD4+ T cell survival” value in test [1] (IL2R-CISC V3 construct, in response to AP21967 (FIG. 15)) is listed as “promotes human CD4+ T cell survival”. The “Dose inducing the most robust cell expansion” value in test [2] (100 nM AP21967 (vs 10 nM)) is “most robust cell expansion”. Besides, the Cell expansion result in test [2] (AP21967 10 nM and 100 nM) is recorded as “promotes CD4+ T cell proliferation; also recorded: significant AP21967-induced expansion”. In addition, the “Enrichment of FOXP3 expressing (gene targeted) cells” value in test [3] is “substantial enrichment of FOXP3 expressing cells”.

For the molecule `CO[C@H]1C[C@@H]2CC[C@@H](C)[C@@](O)(O2)C(=O)C(=O)N2CCCC[C@H]2C(=O)O[C@H]([C@H](C)C[C@@H]2CC[C@@H](O)[C@H](OC)C2)CC(=O)[C@H](C)/C=C(\C)[C@@H](O)[C@@H](OC)C(=O)[C@H](C)C[C@H](C)/C=C/C=C/C=C/1C` [rapamycin, (3S,6R,7E,9R,10R,12R,14S,15E,17E,19E,21S,23S,26R,27R,34aS)-9,10,12,13,14,21,22,23,24,25,26,27,32,33,34,34a-hexadecahydro-9,27-dihydroxy-3-[(1R)-2-[(1S,3R,4R)-4-hydroxy-3-methoxycyclohexyl]-1-methylethyl]-10,21-dimethoxy-6,8,12,14,20,26-hexamethyl-23,27-epoxy-3H-pyrido[2,1-c][1,4] oxaazacyclohentriacontine-1,5,11,28,29 (4H,6H,31H)-pentone], the “Enrichment for IL2R-CISC expression read out by cis-linked GFP marker” value in test [1] (1233 architecture, 4 days post transduction, 2 days in rapamycin alone (1 nM)) is given as “enriched for IL2R-CISC expression; also recorded: beginning to enrich for IL2R-CISC expression”. The “Enrichment of the GFP marker” value in test [1] (1233 architecture, 6 days post transduction, 4 days in rapamycin) is “further enrichment of the GFP marker for 1233”. Besides, the “Enrichment of GFP+ cells” value in test [1] (1233 architecture, 9 days post transduction, 7 days in rapamycin) is recorded as “further enrichment of the 1233 GFP+ cells”. In test [1] (1233 architecture, 17 days post transduction, 15 days culture in rapamycin alone (1 nM)), the “Cells expressing the 1233 IL2R-CISC enriched to % of the cell population (GFP+)” value stood at 97%. In test [1], the mCherry positive cells is reported as more than 93%. In test [2] (25 days), the “Expansion of mCherry positive cell numbers” value is given as “significant rapamycin-induced expansion”. Also, the “Dose inducing the most robust cell expansion” value in test [2] (1 nM rapamycin (vs 10 nM)) is recorded as “most robust cell expansion”. In addition, the Cell expansion entry in test [2] (rapamycin 1 nM and 10 nM) is “significant rapamycin-induced expansion”. The “Phosphorylation of STAT5 in response to treatment” value in test [4] was “only IL2R-CISC expressing cells respond to rapamycin with phosphorylation of STAT5”. The Akt activation entry in test [5] is “Akt activation”. Moreover, the “Enrichment of FOXP3 expressing (gene targeted) cells” value in test [3] is listed as “substantial enrichment of FOXP3 expressing cells”.

For the origin of these results see patent US12358970B2, “Methods of exogenous drug activation of chemical-induced signaling complexes expressed in engineered cells in vitro and in vivo” (Seattle Children's Hospital, priority 2016, dated 2025).
